TGI and GI50 data for 15 molecules are collected here from PubChem BioAssay (NCI).

Some test systems named below: NCI-H460 lung; HT29 colon; HCT-15 colon; KM12 colon; 786-0 renal; TK-10 renal; COLO 205 colon; SK-MEL-5 melanoma; SK-OV-3 ovarian; PC-3 prostate.
Test in all cases: NCI anticancer screen, dose series, 48 h

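In this assay, cells in 96-well plates receive the compound at five concentrations for 48 hours. Endpoints are linearly interpolated between the surrounding concentrations. Here, GI50 denotes the concentration required for 50% inhibition of growth. TGI is the concentration that stops growth completely.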

Regarding `CC1CCC2(NC1)OC1CC3[C@@H]4CC=C5C=CCC[C@]5(C)C4CC[C@]3(C)C1C2C` (some centres not stated), the TGI in the test on NCI-H460 lung came out at 34.1 µM; with HT29 colon, 32.1 µM; in the test with HCT-15 colon, 48.8 µM; with KM12 colon, 44 µM; in the test with 786-0 renal it was 35.5 µM; in the test on TK-10 renal, 35.3 µM. Also, the TGI worked out at 34.6 µM in the test with COLO 205 colon, 30.8 µM in the test with SK-MEL-5 melanoma and 68.4 µM in the test on SK-OV-3 ovarian.

In the case of `CNS(=O)(=O)NN(C)S(=O)(=O)c1ccc(Cl)cc1`, the TGI with HT29 colon, with HCT-15 colon, in the test on KM12 colon, in the test with 786-0 renal, in the test with TK-10 renal and in the test on COLO 205 colon was more than 100 µM throughout. Also, the TGI in the test with SK-MEL-5 melanoma is more than 100 µM.

For `CC1=C(C)CC2(SC1)C(=O)c1ccccc1C2=O`, the TGI in the test with NCI-H460 lung, in the test with HT29 colon, in the test with HCT-15 colon, in the test on KM12 colon, with 786-0 renal and with TK-10 renal was more than 100 µM throughout. Further, the TGI with COLO 205 colon, with SK-MEL-5 melanoma and with SK-OV-3 ovarian was more than 100 µM each time.

For `O=C(CC1(O)C(=O)Nc2ccc(Br)cc21)c1ccc(Cl)cc1` (configuration not stated), the TGI in the test with NCI-H460 lung, in the test with HT29 colon, in the test with HCT-15 colon, in the test with KM12 colon, with 786-0 renal and in the test on TK-10 renal was more than 100 µM in each case. Further, the TGI in the test with COLO 205 colon, in the test with SK-MEL-5 melanoma and in the test with SK-OV-3 ovarian was more than 100 µM throughout.

For the molecule `O=c1[nH]c(=O)n(C2CC(O)C(CO)O2)cc1C(OCC(F)(F)F)OCC(F)(F)F` (configuration not stated), the TGI in the test with NCI-H460 lung, in the test on HT29 colon, in the test with KM12 colon, in the test with 786-0 renal, in the test on TK-10 renal and in the test with COLO 205 colon was more than 100 µM each time. In addition, the TGI in the test on SK-MEL-5 melanoma and in the test on SK-OV-3 ovarian was more than 100 µM throughout.

`CCOC(=O)C(=O)C1C(=O)Nc2ccccc21` (configuration not stated): the TGI in the test with NCI-H460 lung, in the test with HT29 colon, in the test on KM12 colon, with 786-0 renal, in the test on TK-10 renal and with COLO 205 colon was more than 100 µM throughout.

Regarding `CC(C)COC(=O)N1N=NC2C3OC(CC3=O)C21` (configuration not stated), the TGI in the test with NCI-H460 lung, in the test on HT29 colon, with HCT-15 colon, with KM12 colon, with 786-0 renal and in the test on TK-10 renal was more than 100 µM throughout. Further, the TGI in the test on COLO 205 colon, in the test on SK-MEL-5 melanoma and with SK-OV-3 ovarian was more than 100 µM in each case.

Regarding `O=C1O[C@H](C(Cl)(Cl)Cl)N2CCCC12` (some centres not stated), the TGI with NCI-H460 lung, with HT29 colon, in the test with HCT-15 colon, in the test on KM12 colon, with 786-0 renal and in the test on TK-10 renal was more than 100 µM throughout. For the same molecule, the TGI in the test on COLO 205 colon, in the test with SK-MEL-5 melanoma and in the test on SK-OV-3 ovarian was more than 100 µM in each case.

On to `O=c1[nH]c(-c2ccccc2)nc2ccc(Cl)cc12`, for which the TGI in the test on HT29 colon, with HCT-15 colon, in the test with KM12 colon, in the test on 786-0 renal, in the test with TK-10 renal and in the test with COLO 205 colon was more than 100 µM in each case.

In the case of `CCNc1c(C(=O)N(CC)CC)c(=O)[nH]c2ncccc12`, the TGI in the test on NCI-H460 lung, with HT29 colon, with HCT-15 colon, in the test with KM12 colon, with 786-0 renal and in the test with TK-10 renal was more than 100 µM in each case. The TGI in the test on COLO 205 colon, in the test with SK-MEL-5 melanoma and with SK-OV-3 ovarian was more than 100 µM throughout.

With `CS(=O)(=O)N(CCC#N)c1ccc(/C=N/NC(=O)CC(=O)Nc2cccc(Cl)c2)cc1`, the TGI in the test on NCI-H460 lung, in the test on HT29 colon, in the test with HCT-15 colon, with KM12 colon, with 786-0 renal and in the test on TK-10 renal was more than 100 µM each time. Further, the TGI in the test on COLO 205 colon, in the test with SK-MEL-5 melanoma and with SK-OV-3 ovarian was more than 100 µM in each case.

Regarding `CCN(CC)c1ccc(N=C2C=CC(=O)c3ncccc32)c(C)c1`, the TGI in the test with NCI-H460 lung amounted to 21.8 µM; in the test on HT29 colon, 29.2 µM; in the test on HCT-15 colon, 10.8 µM; in the test with KM12 colon, 27.1 µM; with 786-0 renal, 16.6 µM; with TK-10 renal, 29.8 µM. Moreover, the TGI in the test with COLO 205 colon was found to be 5.04 µM; in the test with SK-MEL-5 melanoma, 18.4 µM; in the test with SK-OV-3 ovarian, 34.3 µM.

As to `O=C1CCC2CCc3cccc4oc1c2c34` (configuration not stated), the TGI in the test with NCI-H460 lung, in the test with HT29 colon, in the test on HCT-15 colon, in the test with 786-0 renal, in the test on TK-10 renal and in the test on COLO 205 colon was more than 100 µM each time. Also, the TGI in the test with SK-MEL-5 melanoma and in the test on SK-OV-3 ovarian was more than 100 µM each time.

For `Cc1ccc(C(=O)O/N=C2/CCCCC2CN(C)C)cc1` (configuration not stated), the TGI in the test with NCI-H460 lung, in the test with HT29 colon, in the test with HCT-15 colon, with KM12 colon, with 786-0 renal and in the test with TK-10 renal was more than 100 µM each time. Also, the TGI in the test on COLO 205 colon, in the test on SK-MEL-5 melanoma and in the test on SK-OV-3 ovarian was more than 100 µM in each case.

With `Cc1[nH]c(C(=O)Nc2ccc(C(=O)N3CCNCC3)cc2OC(C)C)c(Cl)c1Cl`, the GI50 in the test on NCI-H460 lung was 1.88 µM; with HT29 colon it was 1.76 µM; with HCT-15 colon, 1.82 µM; in the test on KM12 colon, 1.84 µM; in the test with 786-0 renal, 1.63 µM; with TK-10 renal, 1.8 µM. The GI50 with PC-3 prostate is 2.02 µM; in the test with SK-MEL-5 melanoma it was 1.73 µM. In addition, the TGI in the test with NCI-H460 lung came to 3.44 µM; in the test on HT29 colon, 3.26 µM; in the test with HCT-15 colon, 3.43 µM; in the test on KM12 colon it was 3.46 µM; with 786-0 renal, 3.18 µM; in the test on TK-10 renal, 3.32 µM. In addition, the TGI in the test with PC-3 prostate worked out at 5.44 µM; in the test with SK-MEL-5 melanoma, 3.13 µM.
